One data set concerns SARS-CoV-2. Briefly: SARS-CoV-2 plaque reduction assay in Vero E6 cells. The class given is cell-based. Particulars: read-out: SARS-CoV-2 Antiviral EC50. Background: Plaques are areas of infected cells; plaque reduction assays count them against a control.
The next data set addresses SARS-CoV-2 3CLP (Severe acute respiratory syndrome coronavirus 2 (2019-nCoV) (SARS-CoV-2), UniProt P0DTD1). Briefly: SARS-CoV-2 3CLP inhibition FRET assay. The class given is biochemical. Particulars: 80 nM SARS-CoV-2 3CLP, 100 μM FRET substrate, pH 7.8, 37° C., 10 min preincubation; read-out: 3CL Protease IC50.
The next data set is described as follows: in vitro. The class given is cell-based. The method, then:
Cell viability was measured using the CellTiter-Glo luminescent cell viability assay (Promega). Separately A549 (human lung epithelial) cells and VeroE6 cells were seeded at 5×10^3 cells/well in 96-well plates and incubated overnight before treatment. Compounds were solubilized in DMSO and added to cells in an eight-point four-fold serial dilution (200 μM to 0.0122 μM). Cells were incubated in the presence of compounds for 24 hours before addition of the luminescence substrate and measurement of ATP activity according to manufacturer's instructions. The percentage of viable cells was calculated relative to cells treated with solvent alone (0.5% DMSO).

Setting [1] is: Severe acute respiratory syndrome coronavirus 2, Vero C1008, Vero E6 cells, SARS-CoV-2/CANADA/VIDO 01/2020, MOI 0.0001 pfu/cell, plaques counted after 48 h.
Where [2] appears, read: Severe acute respiratory syndrome coronavirus 2, Vero C1008, 48 h.

Molecules are shown by their SMILES. Like-named read-outs stand apart in the source and are kept apart here. Where only a bound is given, the exact number is not on record here.

In general, EC50 refers to the concentration giving half of the maximal effect. One may read the IC50 as the concentration needed to halve the response being measured. In the case of `CC(C)C[C@@H](C(=O)N[C@H](C#N)C[C@@H]1CCCNC1=O)N1C(=O)c2ccccc2C1=O` [Compound 1, (2S)—N-{(1S)-1-cyano-2-[(3S)-2-oxopiperidin-3-yl]ethyl}-2-(1,3-dioxo-1,3-dihydro-2H-isoindol-2-yl)-4-methylpentanamide], in the data set with SARS-CoV-2 (setting [1]), the concentration giving a half-maximal response (EC50) is greater than 10 µM. Besides, the IC50 on SARS-CoV-2 3CLP was 8.5 µM.
The like results for `CC(C)C[C@@H](C(=O)N[C@H](C#N)C[C@@H]1CCCNC1=O)N1C(=O)CC(C)(C)C1=O` [Compound 2, (2S)—N-{(1S)-1-cyano-2-[(3S)-2-oxopiperidin-3-yl]ethyl}-2-(3,3-dimethyl-2,5-dioxopyrrolidin-1-yl)-4-methylpentanamide] were, in that order, greater than 10 µM and 10.7 µM.
As for `CC(C)C[C@@H](C(=O)N[C@H](C#N)C[C@@H]1CCCNC1=O)N1C(=O)C[C@H](c2ccccc2)C1=O` [Compound 5, (2S)—N-{(1S)-1-cyano-2-[(3S)-2-oxopiperidin-3-yl]ethyl}-2-[(3R)-2,5-dioxo-3-phenylpyrrolidin-1-yl]-4-methylpentanamide], the EC50 in the data set with SARS-CoV-2 (setting [1]) is greater than 10 µM. The 50% inhibitory concentration (IC50) at SARS-CoV-2 3CLP was found to be 6.9 µM.
For the compound `CC(C)C[C@@H](C(=O)N[C@H](C#N)C[C@@H]1CCCNC1=O)n1cccc(NC(=O)OC(C)(C)C)c1=O` [Compound 7, tert-butyl {1-[(2S)-1-({(1S)-1-cyano-2-[(3S)-2-oxopiperidin-3-yl]ethyl}amino)-4-methyl-1-oxopentan-2-yl]-2-oxo-1,2-dihydropyridin-3-yl}carbamate], the half-maximal effective concentration (EC50) in the data set on SARS-CoV-2 (setting [1]) was less than 10 µM.
Broadly, the CC50 is the concentration that lowers cell viability or growth by half. Turning to `CC(C)(C)[C@H](NC(=O)C(F)F)C(=O)N1C[C@H]2[C@@H]([C@H]1C(=O)N[C@H](C#N)C[C@@H]1CCCNC1=O)C2(C)C` [Compound 20, (1R,2S,5S)—N-{(1S)-1-cyano-2-[(3S)-2-oxopiperidin-3-yl]ethyl}-3-[N-(difluoroacetyl)-3-methyl-L-valyl]-6,6-dimethyl-3-azabicyclo[3.1.0]hexane-2-carboxamide], the EC50 with SARS-CoV-2 (setting [2]) is less than 5 µM. The CC50 at 24 h in “in vitro” (African green monkey) and in “in vitro” (human) was greater than 200 µM each time.
In the case of `[2H]C1([2H])CC[C@@H](C[C@@H](C#N)NC(=O)[C@@H]2[C@@H]3[C@H](CN2C(=O)[C@@H](NC(=O)C(F)F)C(C)(C)C)C3(C)C)C(=O)N1` [Compound 24, (1R,2S,5S)—N-{(1S)-1-cyano-2-[(3S)-2-oxo(6,6-^2H2)piperidin-3-yl]ethyl}-3-[N-(difluoroacetyl)-3-methyl-L-valyl]-6,6-dimethyl-3-azabicyclo[3.1.0]hexane-2-carboxamide], in the data set on SARS-CoV-2 (setting [2]), the EC50 was less than 5 µM. For the same compound, the cytotoxic concentration (CC50) at 24 h in “in vitro” (African green monkey) and in the data set “in vitro” (human) was greater than 200 µM each time.

The values are drawn from patent US12186309B2, “RNA virus inhibitor compounds and uses thereof” (The Governors of the University of Alberta, priority 2021, dated 2025).
